Experimental data from patent publication US11254668B2, “Pyrazolo[1,5-A]pyrazin-4-yl and related derivatives” (Pfizer Inc., priority 2017, dated 2022).
Where two headings read alike, the source gives them in different places.

Columns and labels:
[1] = target: JAK1 (Homo sapiens (Human), UniProt P23458); experiment: JAK Caliper Enzyme Assay at 1 mM ATP, JAK1; format: biochemical
In short: (§1)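 Recombinant human kinase domains phosphorylated a fluorescent synthetic peptide at room temperature, with enzyme level and time tuned to 20% to 30% conversion; EDTA stop buffer ended reactions. Mobility-shift separation gave percent product from peak heights, normalised to DMSO and positive controls, and IC50s came from concentration–effect curves.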

[2] = target: JAK3 (Homo sapiens (Human), UniProt P52333); experiment: JAK Caliper Enzyme Assay at 1 mM ATP, JAK3; format: biochemical
In short: as §1

[3] = tested on: IL-12 signaling (TYK2 and JAK2), STAT4 phosphorylation; experiment: Human Whole Blood IL-12 Induced STAT4 Phosphorylation Assay; format: cell-based; settings: IL-12 5 ng/mL, pSTAT4 in lymphocytes by flow cytometry
Protocol: Selected compounds were assessed for their ability to inhibit IL-12 signaling in a human whole blood flow cytometry assay. IL-12 signals through TYK2 and JAK2.
Human Whole Blood IL-12 Induced STAT4 Phosphorylation Assay
Test articles were prepared as 30 mM stocks in DMSO. An 11-point 2.5 dilution series was created in DMSO with a top concentration of 10 mM. Further dilution was done by adding 4 μL of the above test article solutions into 96 μL of PBS with a top concentration of 400 μM. Human whole blood was collected from healthy donors via vein puncture into Vacutainer collection tubes containing sodium heparin (Catalog No. 366480; Becton Dickinson, Franklin Lakes, N.J.). Blood was warmed to 37° C. prior to use. Human whole blood was aliquoted ([…]) in 96-well, deep-well, V-bottom plates and treated with compounds at 11 different concentrations (0.2% DMSO final) at 37° C. for 60 minutes. This was followed by a challenge with IL-12 ([…]; final, 5 ng/mL) for 15 minutes. Samples were treated with warm 1× Lyse/Fix buffer ([…]) to terminate activation and further incubated at 37° C. for 20 minutes to lyse red blood cells. Plates were centrifuged at 300×g for 5 minutes, supernatant was aspirated, and cells were washed with […] of staining buffer (PBS containing 0.5% fetal bovine serum and 0.01% sodium azide). The washed cell pellets were resuspended with […] of pre-chilled 90% methanol, and incubated at 4° C. for 30 minutes. Plates were centrifuged at 300×g for 5 minutes, supernatant containing 90% methanol was aspirated, and cells were washed with […] of staining buffer. Cell pellets were resuspended in staining buffer containing anti-pSTAT4-AlexaFluor647 (1 to 150 dilution, […]), and incubated at room temperature in the dark overnight.
Samples were transferred to 96-well U-bottom plates and flow cytometric analysis was performed on a FACSCalibur or LSRFortessa equipped with a HTS plate loader (BD Biosciences). The lymphocyte population was gated for histogram analysis of pSTAT4. Background fluorescence was defined using unstimulated cells and a gate was placed at the foot of the peak to include ˜0.5% gated population. The histogram statistical analysis was performed using CellQuestÔ Pro version 5.2.1 (BD Biosciences) or FACSDiva version 6.2 (BD Biosciences) software. Relative fluorescence unit (RFU), which measures the level of phospho STAT4, was calculated by multiplying the percent positive population and its mean fluorescence. Data from 11 compound concentrations (singlicate at each concentration) was normalized as a percentage of control based on the formula: % of Control=100'(A−B)/(C−B) where A is the RFU from wells containing compound and IL-12, B is the RFU from wells without IL-12 and compound (minimum fluorescence) and C is the RFU from wells containing only IL-12 (maximum fluorescence). Inhibition curves and IC50 values were determined using the Prism version 5 software (GraphPad, La Jolla, Calif.).

[4] = target: JAK2 (Homo sapiens (Human), UniProt O60674); experiment: JAK Caliper Enzyme Assay at 1 mM ATP, JAK2; format: biochemical
In short: (§2)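 Inhibition is measured as reduced phosphorylation of a synthetic peptide by the recombinant human kinase domain at 1 mM ATP. Conditions give 20–30% conversion at room temperature before EDTA quench, and on-chip separation of labelled substrate and product yields percent conversion for dose–response plotting.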

[5] = target: TYK2 (Homo sapiens (Human), UniProt P29597); experiment: JAK Caliper Enzyme Assay at 1 mM ATP, TYK2; format: biochemical
In short: as §2

Sequence of JAK3 (P52333 822-1111): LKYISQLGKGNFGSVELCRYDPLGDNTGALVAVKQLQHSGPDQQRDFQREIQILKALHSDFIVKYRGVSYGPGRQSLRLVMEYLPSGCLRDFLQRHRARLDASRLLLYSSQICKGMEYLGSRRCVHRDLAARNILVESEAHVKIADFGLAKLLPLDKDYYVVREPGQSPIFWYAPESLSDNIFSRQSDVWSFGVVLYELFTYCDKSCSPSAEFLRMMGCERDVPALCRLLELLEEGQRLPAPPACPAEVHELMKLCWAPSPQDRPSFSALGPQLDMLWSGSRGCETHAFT
Sequence of JAK2 (O60674 849-1124): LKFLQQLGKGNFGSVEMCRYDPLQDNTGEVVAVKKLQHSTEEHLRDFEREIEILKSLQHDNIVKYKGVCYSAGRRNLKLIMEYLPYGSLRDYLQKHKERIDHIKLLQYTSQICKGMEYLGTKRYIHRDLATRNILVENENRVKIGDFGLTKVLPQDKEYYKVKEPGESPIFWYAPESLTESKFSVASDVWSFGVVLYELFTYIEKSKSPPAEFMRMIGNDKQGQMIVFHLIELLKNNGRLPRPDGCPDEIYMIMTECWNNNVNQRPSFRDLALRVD
Sequence of TYK2 (P29597 897-1176): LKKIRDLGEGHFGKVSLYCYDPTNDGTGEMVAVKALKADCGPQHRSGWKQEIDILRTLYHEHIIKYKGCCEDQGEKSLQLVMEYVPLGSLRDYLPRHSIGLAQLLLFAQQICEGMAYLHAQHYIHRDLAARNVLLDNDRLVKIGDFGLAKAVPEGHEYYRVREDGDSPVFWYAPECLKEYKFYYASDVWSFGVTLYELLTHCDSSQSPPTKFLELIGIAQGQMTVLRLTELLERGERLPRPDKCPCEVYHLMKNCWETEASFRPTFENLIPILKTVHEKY
Sequence of JAK1 (P23458 875-1153): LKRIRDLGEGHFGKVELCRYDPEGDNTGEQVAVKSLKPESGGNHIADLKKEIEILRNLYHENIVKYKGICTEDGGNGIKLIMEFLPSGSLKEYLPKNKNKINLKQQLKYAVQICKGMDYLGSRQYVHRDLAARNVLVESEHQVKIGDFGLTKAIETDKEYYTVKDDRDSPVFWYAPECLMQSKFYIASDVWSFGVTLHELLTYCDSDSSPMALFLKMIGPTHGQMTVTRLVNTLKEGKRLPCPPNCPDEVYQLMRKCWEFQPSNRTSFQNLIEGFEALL

What does the source list for `N#CC[C@]1(n2ccc(-c3nc(-c4cc(N)[nH]n4)cc4ncccc34)n2)C[C@H](C#N)C1` [Example 41, trans-3-{3-[7-(5-amino-1H-pyrazol-3-yl)-1,6-naphthyridin-5-yl]-1H-pyrazol-1-yl}-3-(cyanomethyl)cyclobutanecarbonitrile]?
IC50 [1]: 0.014 µM; IC50 [2]: 1.24 µM; IC50 [3]: 0.076 µM; IC50 [4]: 0.021 µM; IC50 [5]: 0.008 µM

Which IC50 [1] does the source give for `N#CC[C@H]1C[C@@](CC#N)(n2ccc(-c3nc(-c4cn[nH]c4)cc4ncccc34)n2)C1` [Example 78, 2,2′-(cis-1-{3-[7-(1H-pyrazol-4-yl)-1,6-naphthyridin-5-yl]-1H-pyrazol-1-yl}cyclobutane-1,3-diyl)diacetonitrile] here?
Its IC50 is 0.172 µM.

And the IC50 [2]?
Its IC50 is 8.61 µM.

What about the IC50 [3] of the same molecule?
The IC50 was 0.076 µM.

What about the IC50 [4] of the same molecule?
The IC50 was 0.104 µM.

What about the IC50 [5] of the same molecule?
The IC50 was 0.014 µM.

With `Cn1cc(-c2cc3ncccc3c(-c3ccn([C@]4(CC#N)C[C@H](C#N)C4)n3)n2)cn1` [Example 103, cis-3-(cyanomethyl)-3-{3-[7-(1-methyl-1H-pyrazol-4-yl)-1,6-naphthyridin-5-yl]-1H-pyrazol-1-yl}cyclobutanecarbonitrile] as the molecule, how does the IC50 [1] read?
The IC50 was 0.055 µM.

What about the IC50 [2] of the same molecule?
The IC50 was 0.873 µM.

And the IC50 [3]?
Its IC50 is 0.04 µM.

What about the IC50 [4] of the same molecule?
Its IC50 is 0.013 µM.

What about the IC50 [5] of the same molecule?
Its IC50 is 0.007 µM.

For `N#CCN1CC(CC#N)(n2ccc(-c3nc(-c4cnn(C5COC5)c4)cc4ncccc34)n2)C1` [Example 120, 2,2′-[3-(3-{7-[1-(oxetan-3-yl)-1H-pyrazol-4-yl]-1,6-naphthyridin-5-yl}-1H-pyrazol-1-yl)azetidine-1,3-diyl]diacetonitrile], which IC50 [1] is on record?
The IC50 was 0.521 µM.

What about the IC50 [2] of the same molecule?
Its IC50 is 8.53 µM.

What about the IC50 ([3]; Lymphocyte) of the same molecule?
Its IC50 is 0.044 µM.

What about the IC50 [4] of the same molecule?
The IC50 was 0.028 µM.

And the IC50 [5]?
Its IC50 is 0.015 µM.

What does the source list for `N#CC[C@]1(n2ncc(-c3cc(-c4cn[nH]c4)cc4ncccc34)n2)C[C@H](C#N)C1` [Example 315, trans-3-(cyanomethyl)-3-{4-[7-(1H-pyrazol-4-yl)quinolin-5-yl]-2H-1,2,3-triazol-2-yl}cyclobutanecarbonitrile]?
IC50 [1]: 0.524 µM; IC50 [2]: > 10 µM; IC50 [3]: 0.123 µM; IC50 [4]: 0.215 µM; IC50 [5]: 0.019 µM

`Cn1cc(-c2cc(-c3cnn([C@]4(CC#N)C[C@H](C#N)C4)c3)n3ccnc3c2)cn1` [Example 458, cis-3-(cyanomethyl)-3-{4-[7-(1-methyl-1H-pyrazol-4-yl)imidazo[1,2-a]pyridin-5-yl]-1H-pyrazol-1-yl}cyclobutanecarbonitrile] was tested. Which IC50 ([1]; JAK Caliper enzyme assay) did it give?
The IC50 was 1.68 µM.

What about the IC50 ([2]; JAK Caliper enzyme assay) of the same molecule?
Its IC50 is greater than 10 µM.

And the IC50 [3]?
The IC50 was 0.177 µM.

And the IC50 ([4]; JAK Caliper enzyme assay)?
Its IC50 is 0.204 µM.

And the IC50 ([5]; JAK Caliper enzyme assay)?
The IC50 was 0.025 µM.

With `Cn1cc(-c2cc(-c3ccn(C4(CC#N)CN(CC(F)(F)F)C4)n3)n3ncnc3c2)cn1` [Example 476, [3-{3-[7-(1-methyl-1H-pyrazol-4-yl)[1,2,4]triazolo[1,5-a]pyridin-5-yl]-1H-pyrazol-1-yl}-1-(2,2,2-trifluoroethyl)azetidin-3-yl]acetonitrile] as the molecule, how does the IC50 ([1]; JAK Caliper enzyme assay) read?
Its IC50 is 0.693 µM.

And the IC50 ([2]; JAK Caliper enzyme assay)?
The IC50 was 7.28 µM.

What about the IC50 ([4]; JAK Caliper enzyme assay) of the same molecule?
Its IC50 is 0.486 µM.

What about the IC50 ([5]; JAK Caliper enzyme assay) of the same molecule?
The IC50 was 0.48 µM.

`Cn1cc(-c2cn3ncnc3c(-c3cnn(C4(CC#N)CN(CC#N)C4)c3)n2)cn1` [Example 477, 2,2′-(3-{4-[6-(1-methyl-1H-pyrazol-4-yl)[1,2,4]triazolo[1,5-a]pyrazin-8-yl]-1H-pyrazol-1-yl}azetidine-1,3-diyl)diacetonitrile] was tested. Which IC50 ([1]; JAK Caliper enzyme assay) did it give?
Its IC50 is greater than 10 µM.

What about the IC50 ([2]; JAK Caliper enzyme assay) of the same molecule?
Its IC50 is greater than 10 µM.

What about the IC50 ([4]; JAK Caliper enzyme assay) of the same molecule?
The IC50 was 2.63 µM.

What about the IC50 ([5]; JAK Caliper enzyme assay) of the same molecule?
Its IC50 is 0.261 µM.

What does the source list for `Cn1cc(-c2cn3ncnc3c(-c3cnn(C4(CC#N)CN(S(C)(=O)=O)C4)c3)n2)cn1` [Example 478, [3-{4-[6-(1-methyl-1H-pyrazol-4-yl)[1,2,4,5-a]pyrazin-8-yl]-1H-pyrazol-1-yl}-1-(methylsulfonyl)azetidin-3-yl]acetonitrile]?
IC50 ([1]; JAK Caliper enzyme assay): > 10 µM; IC50 ([2]; JAK Caliper enzyme assay): > 10 µM; IC50 ([4]; JAK Caliper enzyme assay): 2.19 µM; IC50 ([5]; JAK Caliper enzyme assay): 0.281 µM

How did the IC50 ([1]; JAK Caliper enzyme assay) turn out when `Cn1cc(-c2cc3nccnc3c(-c3cnn(C4(CC#N)CN(CC(F)(F)F)C4)c3)n2)cn1` [Example 479, [3-{4-[7-(1-methyl-1H-pyrazol-4-yl)pyrido[3,4-b]pyrazin-5-yl]-1H-pyrazol-1-yl}-1-(2,2,2-trifluoroethyl)azetidin-3-yl]acetonitrile] was run?
The IC50 was 0.169 µM.

And the IC50 ([2]; JAK Caliper enzyme assay)?
The IC50 was 3.4 µM.

What about the IC50 ([4]; JAK Caliper enzyme assay) of the same molecule?
Its IC50 is 0.024 µM.

And the IC50 ([5]; JAK Caliper enzyme assay)?
The IC50 was 0.011 µM.

`Cn1cc(-c2cc3nccnc3c(-c3cnn(C4(CC#N)CN(CC#N)C4)c3)n2)cn1` [Example 480, 2,2′-(3-{4-[7-(1-methyl-1H-pyrazol-4-yl)pyrido[3,4-b]pyrazin-5-yl]-1H-pyrazol-1-yl}azetidine-1,3-diyl)diacetonitrile] was tested. Which IC50 ([1]; JAK Caliper enzyme assay) did it give?
Its IC50 is 0.145 µM.

And the IC50 ([2]; JAK Caliper enzyme assay)?
The IC50 was 3.75 µM.

And the IC50 ([4]; JAK Caliper enzyme assay)?
Its IC50 is 0.017 µM.

And the IC50 ([5]; JAK Caliper enzyme assay)?
The IC50 was 0.011 µM.

With `Cn1cc(-c2cc3nccnc3c(-c3ccn(C4(CC#N)CN(CC#N)C4)n3)n2)cn1` [Example 481] as the molecule, how does the IC50 ([1]; JAK Caliper enzyme assay) read?
The IC50 was greater than 10 µM.

And the IC50 ([2]; JAK Caliper enzyme assay)?
The IC50 was greater than 10 µM.

What about the IC50 ([4]; JAK Caliper enzyme assay) of the same molecule?
Its IC50 is 3.53 µM.

What about the IC50 ([5]; JAK Caliper enzyme assay) of the same molecule?
Its IC50 is 1.37 µM.

`Cn1cc(-c2cc3nccnc3c(-c3ccn(C4(CC#N)CN(CC(F)(F)F)C4)n3)n2)cn1` [Example 482, [3-{3-[7-(1-methyl-1H-pyrazol-4-yl)pyrido[3,4-b]pyrazin-5-yl]-1H-pyrazol-1-yl}-1-(2,2,2-trifluoroethyl)azetidin-3-yl]acetonitrile] was tested. Which IC50 ([1]; JAK Caliper enzyme assay) did it give?
The IC50 was greater than 10 µM.

What about the IC50 ([2]; JAK Caliper enzyme assay) of the same molecule?
The IC50 was greater than 10 µM.

And the IC50 ([4]; JAK Caliper enzyme assay)?
Its IC50 is greater than 10 µM.

And the IC50 ([5]; JAK Caliper enzyme assay)?
The IC50 was 3.79 µM.

With “[3-(4-{7-[1-(oxetan-3-yl)-1H-pyrazol-4-yl]-1,6-naphthyridin-5-yl}-1H-pyrazol-1-yl)-1-(2,2,2-trifluoroethyl)azetidin-3- [Example 10]” as the molecule, how does the IC50 [1] read?
Its IC50 is 0.086 µM.

What about the IC50 [2] of the same molecule?
The IC50 was 2 µM.

And the IC50 [4]?
The IC50 was 0.01 µM.

What about the IC50 [5] of the same molecule?
Its IC50 is 0.02 µM.
